Results: PubChem BioAssay (NCI)
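GI50 is the concentration that inhibits growth by half. TGI is the concentration that stops growth completely.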

Tests used:
Assay in all cases: NCI tumour cell line growth inhibition, 384-well format
MCF7 breast = system: MCF7 breast
T-47D breast = system: T-47D breast
SK-MEL-28 melanoma = system: SK-MEL-28 melanoma
HCT-15 colon = system: HCT-15 colon
UO-31 renal = system: UO-31 renal
RXF 393 renal = system: RXF 393 renal
KM12 colon = system: KM12 colon
SF-539 CNS = system: SF-539 CNS
LOX IMVI melanoma = system: LOX IMVI melanoma
ACHN renal = system: ACHN renal
DU-145 prostate = system: DU-145 prostate
786-0 renal = system: 786-0 renal
HOP-62 NSCLC = system: HOP-62 NSCLC

FC(F)(F)c1ccc(CNc2ccc(Cc3c[nH]c4ncc(Cl)cc34)cn2)cn1
GI50 (MCF7 breast): 12.5 µM | TGI (MCF7 breast): 25.3 µM | GI50 (T-47D breast): 4.85 µM | TGI (T-47D breast): 16.1 µM | GI50 (SK-MEL-28 melanoma): 9 µM | TGI (SK-MEL-28 melanoma): 21.7 µM | GI50 (HCT-15 colon): 11.4 µM | TGI (HCT-15 colon): 23.9 µM | GI50 (UO-31 renal): 11.6 µM | TGI (UO-31 renal): 23.9 µM | GI50 (RXF 393 renal): 4.54 µM | TGI (RXF 393 renal): 14.7 µM | GI50 (KM12 colon): 4.46 µM | TGI (KM12 colon): 14.2 µM | GI50 (SF-539 CNS): 11.2 µM | TGI (SF-539 CNS): 23.7 µM | GI50 (LOX IMVI melanoma): 14.4 µM | TGI (LOX IMVI melanoma): 27.7 µM | GI50 (ACHN renal): 14.1 µM | TGI (ACHN renal): 30.7 µM | GI50 (DU-145 prostate): 15.4 µM | TGI (DU-145 prostate): 29.1 µM | GI50 (786-0 renal): 3.7 µM | TGI (786-0 renal): 10.7 µM | GI50 (HOP-62 NSCLC): 12.2 µM | TGI (HOP-62 NSCLC): 25.5 µM
